# Counter-ions that a name gives are not always drawn.
# Legend:
# [1] = POV of corn oil treated with SOP (POV titration); conditions: 0.4 mL in 8 mL corn oil, versus untreated corn oil (FIG. 3, 4)
# Method: The POV of these solutions was measured periodically after standing on the laboratory benchtop at ambient light and temperature conditions.
# Into a 15 mL glass vial was placed 0.201 gm of AKG and 2.011 gm of DET. The mixture was stirred with a small magnetic stirrer at room temperature over a weekend (approximately 3 days). However, not all of the AKG dissolved, so the vial was placed in a heating block at 90° C. for 15 minutes, and a clear solution was obtained. Upon cooling and standing for several days, no solid precipitated out. This material (0.4 mL) was diluted into 8 mL of corn oil to start the experiment. A sample was also made from just 0.4 mL of DET in 8 mL of corn oil. POV titration measurements were taken periodically of each sample versus untreated corn oil.
# The performance of the SOPs were monitored by POV titration as described in Flavor & Fragrance Journal, M. Calandra and Y. Wang, 2020, 35:107-113 or as per the IFRA POV method (see www.ifraorg.org).
# [2] = Aldehyde levels in salad dressing (DNPH derivatization, HPLC); conditions: ~2.7% (w/w) in ranch dressing, room temperature, versus untreated (FIG. 9)
# Method: Aldehyde levels in corn oil or other foods (such as salad dressing) were measured using the DNPH derivatization followed by HPLC analysis method (J. Ag. Food Chem. Deng, F-Y. et al, (2014) 62, 52, 12545-12552; Food Res. Internat., Cao, J. et al, (2014) 64, 901-907). Alternatively, or in addition to aldehyde measurements by HPLC, organoleptic evaluation to assess the level of rancidity in a sample was done.
# Treatment of Salad Dressing with a 2-Oxoacid Salt • Sample: Ranch dressing (chili lime flavor) • 2-Oxoacid salt used: Phenyl pyruvic acid dimethyldecylammonium salt • Dosage: ˜2.7% (w/w) (0.4 g of the salt was added to 15 g of salad dressing). • Storage conditions: Room temperature, capped loosely, and mixed periodically.
Compound,POV of corn oil [1],aldehyde concentration (hexanal or 2-nonenal) in salad dressing [2]
"CCOC(=O)C(O)C(O)C(=O)OCC (centres unmarked) [DET, diethyl tartrate]",some measurable activity toward reducing the POV,
Phenyl pyruvic acid dimethyldecylammonium salt,,aldehyde levels were lower
